“And” between values parts separate entries of the source, which are not always exact repeats. Equal values may be shown once.
Conditions: instrument: DT, single field, calibrated with ESI Low Concentration Tuning Mix (Agilent)

Compound | collision cross section (N2) ([M+H]+) [Å²] | collision cross section (N2) ([M+Na]+) [Å²] | collision cross section (N2) ([M-H]-) | other results
Nc1ncnc2c1ncn2C1OC(COP(=O)(O)OP(=O)(O)OCC2OC(O)C(O)C2O)C(O)C1O (centres undefined) [ADENOSINE DIPHOSPHATE RIBOSE] | 212.4 | 217.5 | 202.3 Å² and 207.2 Å² | collision cross section (N2) ([M+H2O-H]-): 204.5 Å²; collision cross section (N2) ([M+Na-2H]-): 211.5 Å²
Nc1ncnc2c1ncn2[C@@H]1O[C@H](COP(=O)(O)OP(=O)(O)O[C@H]2O[C@H](CO)[C@@H](O)[C@H](O)[C@H]2O)[C@@H](O)[C@H]1O [ADP-GLUCOSE] | 216.1 | 224.9 | 217.5 Å² | collision cross section (N2) ([M+Na-2H]-): 218.4 Å²
C[C@H](O)[C@H](N)C(=O)O [ALLOTHREONINE] |  |  | 119.3 Å² | 
Cn1cncc1C[C@H](NC(=O)CCN)C(=O)O [ANSERINE] | 153.8 | 156.2 | 154.8 Å² | 
OC[C@@H](O)C(O)[C@H](O)CO [ARABITOL] |  | 135.8 | 124.9 Å² | 
NC(N)=NCCC[C@H](N)C(=O)O [ARGININE] | 136.6 | 148.6 | 136.4 Å² | 
O=C(O)CCCCCCCC(=O)O [AZELATE] |  | 148.4 |  | collision cross section (N2) ([M+Na-2H]-): 141.9 Å²
NC(=O)c1ccc[n+]([C@@H]2O[C@H](COP(=O)([O-])OP(=O)(O)OC[C@H]3O[C@@H](n4cnc5c(N)ncnc54)[C@H](O)[C@@H]3O)[C@@H](O)[C@H]2O)c1 [BETA-NICOTINAMIDE ADENINE DINUCLEOTIDE] | 227.5 | 222.7 | 223.8 Å² | collision cross section (N2) ([M+Na-2H]-): 230.8 Å²
NCCC(=O)N[C@@H](Cc1cnc[nH]1)C(=O)O [CARNOSINE] | 150.8 | 154.7 | 152.1 Å² | 
OC[C@H]1O[C@@H](O[C@H]2[C@H](O)[C@@H](O)[C@H](O)O[C@@H]2CO)[C@H](O)[C@@H](O)[C@@H]1O [CELLOBIOSE] |  | 178.7 | 179.7 Å² | collision cross section (N2) ([M+K]+): 180.9 Å²
O=C(O)CC(O)(CC(=O)O)C(=O)O [CITRATE] |  | 143.1 | 127.1 Å² | 
NC(=O)NCCC[C@H](N)C(=O)O [CITRULLINE] | 137.7 | 139.4 | 135.4 Å² | 
NC(CS(=O)(=O)O)C(=O)O (centres undefined) [CYSTEATE] | 140.2 | 148.2 | 123 Å² | collision cross section (N2) ([M+Na-2H]-): 131.4 Å²
Nc1ccn(C2O[C@H](CO)[C@H]3OP(=O)(O)O[C@@H]23)c(=O)n1 (some centres undefined) [CYTIDINE 2',3'-CYCLIC PHOSPHATE] | 163.3 | 167.4 | 164.5 Å² | collision cross section (N2) ([M+H2O-H]-): 167.1 Å²; collision cross section (N2) ([M+K]+): 168 Å²; collision cross section (N2) ([M+Na-2H]-): 165 Å²
NCCC[C@@H](N)C(=O)O [D-ORNITHINE] | 128.1 |  | 128.3 Å² | 
O=P(O)(O)OC[C@H]1OC(O)[C@H](O)[C@@H]1O (stereo partly drawn) [D-RIBOSE 5-PHOSPHATE] |  | 150.5 | 139.4 Å² | 
C[C@H](CCC(=O)O)[C@H]1CC[C@H]2[C@@H]3CC[C@@H]4C[C@H](O)CC[C@]4(C)[C@H]3C[C@H](O)[C@]12C [DEOXYCHOLATE] |  |  | 202.2 Å² and 202.3 Å² | 
Nc1ccn([C@H]2C[C@H](O)[C@@H](CO)O2)c(=O)n1 [DEOXYCYTIDINE] |  | 155.2 | 148.7 Å² | collision cross section (N2) ([M+K]+): 158.5 Å²
Nc1nc(=O)c2ncn([C@H]3C[C@H](O)[C@@H](COP(=O)(O)OP(=O)(O)OP(=O)(O)O)O3)c2[nH]1 [DGTP] |  |  | 191.4 Å² | collision cross section (N2) ([M+Na-2H]-): 182.7 Å²
CCOC(=O)Cc1c[nH]c2ccccc12 [ETHYL 3-INDOLEACETATE] | 145.2 | 153.6 | 145.6 Å² | 
Cc1cc2nc3c(=O)[nH]c(=O)nc-3n(C[C@H](O)[C@H](O)[C@H](O)COP(=O)(O)OP(=O)(O)OC[C@H]3O[C@@H](n4cnc5c(N)ncnc54)[C@H](O)[C@@H]3O)c2cc1C [FAD] | 249 | 250.3 | 238.7 Å² | collision cross section (N2) ([M+Na-2H]-): 256.2 Å²
COc1cc(/C=C/C(=O)O)ccc1O [FERULATE] |  |  | 139.8 Å² | 
OCC1(O)OC[C@@H](O)[C@@H](O)[C@@H]1O (some centres undefined) [FRUCTOSE] |  | 141.5 |  | 
O=P(O)(O)O[C@H]1O[C@H](CO)[C@H](O)[C@H](O)[C@H]1O [GALACTOSE 1-PHOSPHATE] |  | 157.7 | 148.2 Å² | collision cross section (N2) ([M+K]+): 158.5 Å²
OC[C@H]1OC(O)[C@H](O)[C@@H](O)[C@H]1O (some centres undefined) [GALACTOSE] |  | 141.9 |  | 
O=C(O)[C@H]1O[C@H](O)[C@H](O)[C@@H](O)[C@H]1O [GALACTURONATE] |  | 145.3 | 131.3 Å² | 

Compound | collision cross section (N2) ([M+H]+) [Å²] | collision cross section (N2) ([M+Na]+) [Å²] | collision cross section (N2) ([M-H]-) | other results
CCCCC/C=C\C/C=C\C/C=C\CCCCC(=O)[O-] [GAMMA-LINOLENATE] |  |  | 174.8 Å² | 
CC(C)=CCC/C(C)=C/COP(=O)(O)OP(=O)(O)O [GERANYL-PP] |  |  | 167.2 Å² | collision cross section (N2) ([M+Na-2H]-): 173.8 Å²
N[C@@H](C(=O)O)[C@@H](O)[C@H](O)[C@H](O)CO [GLUCOSAMINATE] | 141.8 | 146.5 | 135.7 Å² | 
N[C@@H]1[C@@H](O)[C@H](O)[C@@H](COP(=O)(O)O)O[C@@H]1O [GLUCOSAMINE 6-PHOSPHATE] |  |  | 148.1 Å² | 
O=C(O)[C@H]1OC(O)[C@H](O)[C@@H](O)[C@@H]1O (some centres undefined) [GLUCURONATE] |  | 150.2 | 131.7 Å² | 
O=C(O)CCCC(=O)O [GLUTARATE] |  |  | 121.3 Å² and 121.4 Å² | collision cross section (N2) ([M+Na-2H]-): 129 Å² and 129.1 Å²
O=C(O)[C@H](O)CO [GLYCERATE] |  |  | 112.6 Å² | 
CCCCCCCCCCCCCC(=O)OCC(COC(=O)CCCCCCCCCCCCC)OC(=O)CCCCCCCCCCCCC [GLYCERYL TRIMYRISTATE] |  | 291.4 |  | 
Nc1nc(=O)c2[nH]cnc2[nH]1 [GUANINE] |  | 137.8 |  | collision cross section (N2) ([M+K]+): 136 Å²
Nc1nc(=O)c2ncn([C@@H]3O[C@H](COP(=O)(O)O)[C@@H](O)[C@H]3O)c2[nH]1 [GUANOSINE MONOPHOSPHATE] | 179.5 | 174.3 | 169.4 Å² | collision cross section (N2) ([M+Na-2H]-): 172.1 Å²
CCCCCCCCCCCCCCCCC(=O)[O-] [HEPTADECANOATE] |  |  | 172.9 Å² | 
O=C(O)Cc1cc(O)ccc1O [HOMOGENTISATE] |  |  | 132.4 Å² | 
NCCS(=O)O [HYPOTAURINE] | 125.4 |  | 132.6 Å² | 
NC(=O)Cc1c[nH]c2ccccc12 [INDOLE-3-ACETAMIDE] | 137 | 143.4 | 135.5 Å² | 
OCCc1c[nH]c2ccccc12 [INDOLE-3-ETHANOL] | 133.6 |  | 132.6 Å² | 
COC(=O)Cc1c[nH]c2ccccc12 [INDOLE-3-METHYL ACETATE] | 138.7 | 147.2 | 141.1 Å² | 
O=C(O)C(=O)Cc1c[nH]c2ccccc12 [INDOLE-3-PYRUVATE] |  |  | 137.6 Å² | 
O=CCc1c[nH]c2ccccc12 [INDOLEACETALDEHYDE] | 132.3 |  | 130.7 Å² | 
CC[C@H](C)[C@H](N)C(=O)O [ISOLEUCINE] | 133 |  | 129.3 Å² | 
O=C1O[C@H]([C@@H](O)CO)[C@H](O)[C@@H]1O [L-GULONOLACTONE] |  | 140.8 | 129.6 Å² | collision cross section (N2) ([M+H2O-H]-): 133.5 Å²
NC(=O)[C@@H](N)Cc1c[nH]c2ccccc12 [L-TRYPTOPHANAMIDE] | 150.5 | 147.7 | 143.3 Å² | 
CCCCCCCCCCCC(=O)O[C@H](CC(=O)[O-])C[N+](C)(C)C [LAUROYLCARNITINE] | 199 | 209.4 |  | 
Cc1cc2nc3[nH]c(=O)[nH]c(=O)c3nc2cc1C [LUMICHROME] | 153.1 | 167.7 | 155.1 Å² | collision cross section (N2) ([M+H20-H]-): 160.2 Å²
O=P(O)(O)OC[C@H]1OC(O)[C@@H](O)[C@@H](O)[C@@H]1O (some centres undefined) [MANNOSE 6-PHOSPHATE] |  | 156.1 | 146.2 Å² | collision cross section (N2) ([M+Na-2H]-): 156.7 Å²
CS(=N)(=O)CCC(N)C(=O)O (centres undefined) [METHIONINE SULFOXIMINE] | 136.9 | 138.1 | 136.2 Å² | 
